{
  "source": "ChEMBL document CHEMBL5500360",
  "about": "“Discovery of N-(4-((6-(3,5- Dimethoxyphenyl)-9H-purine derivatives as irreversible covalent FGFR inhibitors” (Eur J Med Chem, 2024)",
  "key": {"KYSE-150 cell line": {"tested_on": "KYSE-150 cell line", "test": "cells", "conditions": "Homo sapiens, KYSE-150, 72 h", "description": "Antiproliferative activity against human KYSE-150 cells assessed as inhibition of cell growth incubated for 72 hrs by MTT assay"}, "MDA-MB-231 [1]": {"tested_on": "MDA-MB-231", "test": "cells", "conditions": "Homo sapiens, MDA-MB-231, 72 h"}, "MDA-MB-231 [2]": {"tested_on": "MDA-MB-231", "test": "Induction of apoptosis in human MDA-MB-231 cells assessed as late apoptotic cells at 5 uM incubated for 24 hrs by Annexin V-FITC/PI staining based flow cytometric analysis (reference value: 0.161 %)", "assay_type": "functional"}, "MDA-MB-231 [3]": {"tested_on": "MDA-MB-231", "test": "Induction of apoptosis in human MDA-MB-231 cells assessed as necrotic cells at 5 uM incubated for 24 hrs by Annexin V-FITC/PI staining based flow cytometric analysis (reference value: 0.063 %)", "assay_type": "functional"}, "MDA-MB-231 [4]": {"tested_on": "MDA-MB-231", "test": "Induction of apoptosis in human MDA-MB-231 cells assessed as apoptotic cells at 5 uM incubated for 24 hrs by Annexin V-FITC/PI staining based flow cytometric analysis relative to control", "assay_type": "functional"}, "MDA-MB-231 [5]": {"tested_on": "MDA-MB-231", "test": "Induction of apoptosis in human MDA-MB-231 cells assessed as viable cells at 5 uM incubated for 24 hrs by Annexin V-FITC/PI staining based flow cytometric analysis (reference value: 99.645%)", "assay_type": "functional", "conditions": "read-out: Activity"}, "MDA-MB-231 [6]": {"tested_on": "MDA-MB-231", "test": "Induction of ROS production in human MDA-MB-231 cells at 5 uM incubated for 12 hrs by flow cytometry based confocal microscopic analysis", "assay_type": "functional, cell-based"}, "in vitro": {"test": "in vitro", "conditions": "human, HUVEC cells", "description": "Cytotoxicity against HUVEC cells assessed as inhibition of cell growth incubated for 72 hrs by MTT assay"}, "MDA-MB-231 [7]": {"tested_on": "MDA-MB-231", "test": "Induction of apoptosis in human MDA-MB-231 cells assessed as early apoptotic cells at 5 uM incubated for 24 hrs by Annexin V-FITC/PI staining based flow cytometric analysis (reference value: 0.131 %)", "assay_type": "functional"}, "MDA-MB-231 [8]": {"tested_on": "MDA-MB-231", "test": "Inhibition of cell migration in human MDA-MB-231 cells at 2.5 uM incubated for 12 hrs by cell scratch assay", "assay_type": "functional, cell-based"}, "MDA-MB-435": {"tested_on": "MDA-MB-435", "test": "cells", "conditions": "Homo sapiens, MDA-MB-435, 72 h", "description": "Antiproliferative activity against human MDA-MB-435 cells assessed as inhibition of cell growth incubated for 72 hrs by MTT assay"}, "MDA-MB-231 [9]": {"tested_on": "MDA-MB-231", "test": "Cell cycle arrest in human MDA-MB-231 cells assessed as accumulation of S phase cells at 5 uM incubated for 24 hrs by […]PI staining based flow cytometric analysis (reference value: 41.29%)", "assay_type": "functional"}, "MDA-MB-231 [10]": {"tested_on": "MDA-MB-231", "test": "Antitumor activity against human MDA-MB-231 cells xenografted in female BALB/c athymic nude mouse assessed as tumor growth inhibition at 10 mg/kg, po administered once a day via gavage for 21 days relative to control", "assay_type": "functional", "conditions": "MDA-MB-231, 504 h, time 21 day, read-out: TGI"}, "MDA-MB-231 [11]": {"tested_on": "MDA-MB-231", "test": "Cell cycle arrest in human MDA-MB-231 cells assessed as accumulation of G2-M phase cells at 5 uM incubated for 24 hrs by […]PI staining based flow cytometric analysis (reference value: 16.88%)", "assay_type": "functional"}, "MDA-MB-231 [12]": {"tested_on": "MDA-MB-231", "test": "Cell cycle arrest in human MDA-MB-231 cells assessed as accumulation of G0-G1 phase cells at 5 uM incubated for 24 hrs by […]PI staining based flow cytometric analysis (reference value: 41.83%)", "assay_type": "functional"}, "HepG2": {"tested_on": "HepG2", "test": "cells", "conditions": "Homo sapiens, HepG2, 72 h"}},
  "note": "The source made the active and inactive calls. The rule behind the calls is not given here.",
  "data": [
    {"smiles": "COc1cc(CCc2cc(NC(=O)c3ccc(N4C[C@@H](C)N[C@@H](C)C4)cc3)n[nH]2)cc(OC)c1", "note": "[FEXAGRATINIB]", "values": [
      {"measurement": "IC50", "setting": "KYSE-150 cell line", "value": 8.92, "unit": "µM"},
      {"measurement": "IC50", "setting": "MDA-MB-231 [1]", "value": 7.19, "unit": "µM"},
      {"measurement": "Activity", "setting": "MDA-MB-231 [2]", "value": 10.3, "unit": "%"},
      {"measurement": "Activity", "setting": "MDA-MB-231 [3]", "value": 2.72, "unit": "%"},
      {"measurement": "Activity", "setting": "MDA-MB-231 [4]", "value": 37.3, "unit": "%"},
      {"measurement": "viability at 5 µM", "setting": "MDA-MB-231 [5]", "value": 58, "unit": "%"},
      {"measurement": "Activity", "setting": "MDA-MB-231 [6]", "value": "Active"},
      {"measurement": "IC50 at 72 h", "setting": "in vitro", "value": 38, "unit": "µM"},
      {"measurement": "Activity", "setting": "MDA-MB-231 [7]", "value": 29, "unit": "%"},
      {"measurement": "inhibition", "setting": "MDA-MB-231 [8]", "value": "Active"},
      {"measurement": "IC50", "setting": "MDA-MB-435", "value": 21.6, "unit": "µM"},
      {"measurement": "Activity", "setting": "MDA-MB-231 [9]", "value": 26.31, "unit": "%"},
      {"measurement": "inhibition in vivo at 10 mg/kg", "setting": "MDA-MB-231 [10]", "value": 52.6, "unit": "%"},
      {"measurement": "Activity", "setting": "MDA-MB-231 [11]", "value": 14.77, "unit": "%"},
      {"measurement": "Activity", "setting": "MDA-MB-231 [12]", "value": 58.92, "unit": "%"},
      {"measurement": "IC50", "setting": "HepG2", "value": 3.13, "unit": "µM"}
    ]}
  ]
}
